Test results published in ChEMBL document CHEMBL5137012, “The role of the maleimide ring system on the structure-activity relationship of showdomycin” (Eur J Med Chem, 2022).
One block for each compound: values may come before it. The source made the active and inactive calls. The rule behind the calls is not given here.

What was measured:
Escherichia coli [1] = assay: Antibacterial activity against Escherichia coli K12 expressing modified luxABCDE genes assessed as reduction in bacterial growth by measuring reduction in optical density incubated for 16 hrs by microplate reader analysis; assay type: functional, organism-based; conditions: DDE = dose-dependent effect
Escherichia coli [2] = assay: Antibacterial activity against Escherichia coli K12 expressing modified luxABCDE genes assessed as reduction in bacterial growth by measuring reduction in bioluminescence incubated for 16 hrs by microplate reader analysis; assay type: functional, organism-based; conditions: DDE = dose-dependent effect
Escherichia coli [3] = assay: Antibacterial activity against Escherichia coli K12 expressing modified luxABCDE genes assessed as reduction in bacterial growth by measuring reduction in bioluminescence at low concentrations measured after 250 mins by microplate reader analysis; assay type: functional, organism-based
Escherichia coli [4] = assay: Antibacterial activity against Escherichia coli K12 expressing modified luxABCDE genes assessed as reduction in bacterial growth by measuring reduction in bioluminescence at 0.002 to 2.5 mM incubated for 16 hrs by microplate reader analysis; assay type: functional, organism-based; conditions: dose 0.002-2.5 mM
HEK-293T [5] = assay: Cytotoxicity against HEK293T cells assessed as morphological changes at 125 uM; assay type: toxicity, cell-based; conditions: human
Escherichia coli [6] = assay: Antibacterial activity against Escherichia coli K12 expressing modified luxABCDE genes assessed as reduction in bacterial growth by measuring reduction in optical density at 0.002 to 2.5 mM incubated for 16 hrs in presence of uridine at 0.002 to 12.5 mM by microplate reader analysis; assay type: functional, organism-based; conditions: dose 0.002-2.5 mM
HEK-293T [7] = assay: Cytotoxicity against HEK293T cells at 125 uM incubated for 24 hrs by LDH assay; assay type: toxicity, cell-based; conditions: human
Escherichia coli [8] = assay: Antibacterial activity against Escherichia coli K12 expressing modified luxABCDE genes assessed as reduction in bacterial growth by measuring reduction in optical density at 0.002 to 2.5 mM incubated for 16 hrs by microplate reader analysis; assay type: functional, organism-based; conditions: dose 0.002-2.5 mM
HEK-293T [9] = assay: Cytotoxicity against HEK293T cells assessed as reduction in viable cells at 500 uM incubated for 24 hrs by CCK-8 assay; assay type: toxicity, cell-based; conditions: human
Escherichia coli [10] = assay: Antibacterial activity against Escherichia coli K12 expressing modified luxABCDE genes assessed as reduction in bacterial growth by measuring reduction in bioluminescence at 0.002 to 2.5 mM incubated for 16 hrs in presence of uridine at 0.002 to 12.5 mM by microplate reader analysis; assay type: functional, organism-based; conditions: dose 0.002-2.5 mM
Escherichia coli [11] = assay: Bactericidal activity against Escherichia coli K12 expressing modified luxABCDE genes assessed as reduction in luminescence at 2.5 mM incubated for 16 hrs by microplate reader analysis; assay type: functional, organism-based
Saccharomyces cerevisiae [12] = assay: Inhibition of Saccharomyces cerevisiae RNA polymerase 2-mediated processive transcription elongation at polythymidine sequence at 2 mM incubated for 5 mins by PAGE analysis
Escherichia coli [13] = assay: Substrate activity at Escherichia coli RNA polymerase assessed as one nucleotide extension of transcription elongation complex by measuring incorporation of 4-ethylthioshowdomycin-5'-monophosphate into RNA at 100 uM incubated for 1 min by ATTO680 fluorophore based PAGE analysis
Homo sapiens [14] = species on record: Homo sapiens; assay: Substrate activity at human mitochondria RNA polymerase assessed as two nucleotide extension of transcription elongation complex by measuring incorporation of 4-ethylthioshowdomycin-5'-monophosphate into RNA at 100 uM incubated for 1 min in presence of GTP by ATTO680 fluorophore based PAGE analysis
Escherichia coli [15] = assay: Inhibition of Escherichia coli RNA polymerase-mediated processive transcription elongation at polythymidine sequence at 2 mM incubated for 5 mins by PAGE analysis
Homo sapiens [16] = species on record: Homo sapiens; assay: Substrate activity at human mitochondria RNA polymerase assessed as one nucleotide extension of transcription elongation complex by measuring incorporation of 4-ethylthioshowdomycin-5'-monophosphate into RNA at 100 uM incubated for 1 min by ATTO680 fluorophore based PAGE analysis
Escherichia coli [17] = assay: Substrate activity at Escherichia coli RNA polymerase assessed as extension of transcription elongation complex by measuring incorporation into RNA in place of UTP at 100 uM incubated for 1 min in presence of GTP by PAGE analysis
Homo sapiens [18] = species on record: Homo sapiens; assay: Substrate activity at human mitochondria RNA polymerase assessed as extension of transcription elongation complex by measuring incorporation into RNA in place of UTP at 100 uM incubated for 1 min in presence of GTP by PAGE analysis
Saccharomyces cerevisiae [19] = assay: Substrate activity at Saccharomyces cerevisiae RNA polymerase 2 assessed as extension of transcription elongation complex by measuring incorporation into RNA in place of UTP at 100 uM incubated for 1 min in presence of GTP by PAGE analysis
Escherichia coli [20] = assay: Antibacterial activity against Escherichia coli K12 expressing modified luxABCDE genes assessed as reduction in bacterial growth by measuring reduction in optical density at 40 uM incubated for 16 hrs by microplate reader analysis; assay type: functional, organism-based
Escherichia coli [21] = assay: Antibacterial activity against Escherichia coli K12 expressing modified luxABCDE genes assessed as reduction in bacterial growth by measuring reduction in bioluminescence at 40 uM incubated for 16 hrs by microplate reader analysis; assay type: functional, organism-based
Escherichia coli [22] = assay: Bactericidal activity against Escherichia coli K12 expressing modified luxABCDE genes assessed as reduction in luminescence at 0.625 mM incubated for 16 hrs by microplate reader analysis; assay type: functional, organism-based
HEK-293T [23] = assay: Cytotoxicity against HEK293T cells at 30 uM incubated for 24 hrs by LDH assay; assay type: toxicity, cell-based; conditions: human
HEK-293T [24] = assay: Cytotoxicity against HEK293T cells assessed as morphological changes at 30 uM; assay type: toxicity, cell-based; conditions: human
HEK-293T [25] = assay: Cytotoxicity against HEK293T cells assessed as reduction in viable cells at 125 uM incubated for 24 hrs by CCK-8 assay; assay type: toxicity, cell-based; conditions: human

Structure (SMILES): N=C(N)NCC(=O)N(O)C(CCC(N)=O)C(=O)NC[C@H]1O[C@@H](c2c[nH]c(=O)[nH]c2=O)[C@H](O)[C@@H]1O (stereo partly drawn)
Activity (Escherichia coli [1]): Dde
Activity (Escherichia coli [2]): Dde

Structure (SMILES): CCSC1=C([C@@H]2O[C@H](CO)[C@@H](O)[C@H]2O)C(=O)NC1=O
Activity (Escherichia coli [3]): Active
Activity (Escherichia coli [4]): Active
Activity (HEK-293T [5]): Toxic
Activity (Escherichia coli [6]): Active
Activity (HEK-293T [7]): Toxic
Activity (Escherichia coli [8]): Active
Activity (HEK-293T [9]): Toxic
Activity (Escherichia coli [10]): Active
Activity (Escherichia coli [11]): Active

inhibition (Saccharomyces cerevisiae [12]): Active
Activity (Escherichia coli [13]): Active
Activity (Homo sapiens [14]): Active
inhibition (Escherichia coli [15]): Active
Activity (Homo sapiens [16]): Active
Structure (SMILES): CCSC1=C([C@@H]2O[C@H](COP(=O)(O)OP(=O)(O)OP(=O)(O)O)[C@@H](O)[C@H]2O)C(=O)NC1=O

inhibition (Saccharomyces cerevisiae [12]): Active
Activity (Escherichia coli [17]): Active
inhibition (Escherichia coli [15]): Active
Activity (Homo sapiens [18]): Active
Activity (Saccharomyces cerevisiae [19]): Active
Structure (SMILES): CSC1=C([C@@H]2O[C@H](COP(=O)(O)OP(=O)(O)OP(=O)(O)O)[C@@H](O)[C@H]2O)C(=O)NC1=O

Activity (Escherichia coli [17]): Active
Structure (SMILES): C[C@@H](SC1=C([C@@H]2O[C@H](COP(=O)(O)OP(=O)(O)OP(=O)(O)O)[C@@H](O)[C@H]2O)C(=O)NC1=O)C(=O)O

Activity (Escherichia coli [17]): Active
Structure (SMILES): C[C@H](SC1=C([C@@H]2O[C@H](COP(=O)(O)OP(=O)(O)OP(=O)(O)O)[C@@H](O)[C@H]2O)C(=O)NC1=O)C(=O)O

Structure (SMILES): NC[C@H]1O[C@H](O[C@H]2[C@H](O)[C@@H](O[C@H]3O[C@H](CO)[C@@H](O)[C@H](N)[C@H]3O)[C@H](N)C[C@@H]2N)[C@H](O)[C@@H](O)[C@@H]1O
Activity (Escherichia coli [20]): Active
Activity (Escherichia coli [21]): Active

inhibition (Saccharomyces cerevisiae [12]): Active
Activity (Escherichia coli [17]): Active
inhibition (Escherichia coli [15]): Active
Activity (Homo sapiens [18]): Active
Activity (Saccharomyces cerevisiae [19]): Active
Structure (SMILES): O=C1NC(=O)C([C@@H]2O[C@H](COP(=O)(O)OP(=O)(O)OP(=O)(O)O)[C@@H](O)[C@H]2O)=C1Br

inhibition (Saccharomyces cerevisiae [12]): Active
Activity (Escherichia coli [17]): Active
inhibition (Escherichia coli [15]): Active
Activity (Homo sapiens [18]): Active
Activity (Saccharomyces cerevisiae [19]): Active
Structure (SMILES): C[Se]C1=C([C@@H]2O[C@H](COP(=O)(O)OP(=O)(O)OP(=O)(O)O)[C@@H](O)[C@H]2O)C(=O)NC1=O

Structure (SMILES): CN[C@@H]1[C@@H](O[C@H]2O[C@H](CO)[C@@H](N)[C@H](O)[C@H]2O)O[C@H]2C[C@@H](N)[C@@H](O[C@H]3[C@H](O)[C@@H](O)[C@H](N)C[C@@H]3N)O[C@@H]2[C@@H]1O
Activity (Escherichia coli [20]): Active
Activity (Escherichia coli [21]): Active

Structure (SMILES): O=C1C=C([C@@H]2O[C@H](CO)[C@@H](O)[C@H]2O)C(=O)N1
Activity (Escherichia coli [22]): Active
Activity (Escherichia coli [4]): Active
Activity (HEK-293T [23]): Toxic
Activity (HEK-293T [24]): Toxic
Activity (HEK-293T [25]): Toxic
Activity (Escherichia coli [8]): Active
